{
  "source": "patent US7858745B2",
  "about": "“Use of specifically engineered enzymes to enhance the efficacy of prodrugs” (The Board of Trustees of the University of Illinois, priority 2003, dated 2010)",
  "key": {"A100V/R104M/D133A-dCK": {"biological_target": "A100V/R104M/D133A-dCK (Homo sapiens, UniProt P27707, A100V/D133A/R104M)", "sequence (P27707 whole entry A100V/R104M/D133A)": "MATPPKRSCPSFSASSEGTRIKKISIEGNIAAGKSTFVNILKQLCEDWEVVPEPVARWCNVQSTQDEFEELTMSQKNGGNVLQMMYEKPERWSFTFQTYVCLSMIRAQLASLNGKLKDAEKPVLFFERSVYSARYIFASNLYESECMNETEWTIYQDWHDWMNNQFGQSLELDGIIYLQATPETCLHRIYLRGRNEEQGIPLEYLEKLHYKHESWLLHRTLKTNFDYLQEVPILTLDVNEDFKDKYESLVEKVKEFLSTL", "assay": "Steady-state kinetic assay of deoxycytidine kinase activity, triple mutant enzyme", "experimental": "Since Arg104 plays a role in the already mentioned active site hydrogen-bonding network, its mutation to the uncharged methionine was combined with the compensatory change of Asp133 to an alanine. […] In addition, Ala100 was changed to a valine as is found in dNK.\nAll experiments were performed in duplicates."}, "Wild Type dCK": {"biological_target": "Wild Type dCK (Homo sapiens, UniProt P27707)", "sequence (P27707 whole entry)": "as the sequence (P27707 whole entry A100V/R104M/D133A) above, with V100A, M104R, A133D counted along it", "assay": "Steady-state kinetic assay of deoxycytidine kinase activity, wild type enzyme", "conditions": "prodrug versus dC"}, "dNK": {"biological_target": "T1, dNK (Drosophila melanogaster, UniProt Q9XZT6)", "T1 sequence (Q9XZT6 1-250)": "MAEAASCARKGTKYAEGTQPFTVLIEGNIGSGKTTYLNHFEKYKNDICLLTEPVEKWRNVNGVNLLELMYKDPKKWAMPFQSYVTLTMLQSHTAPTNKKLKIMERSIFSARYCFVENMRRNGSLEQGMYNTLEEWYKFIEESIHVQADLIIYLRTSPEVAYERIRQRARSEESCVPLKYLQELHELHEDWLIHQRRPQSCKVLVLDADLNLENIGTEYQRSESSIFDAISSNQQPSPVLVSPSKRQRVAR", "conditions": "dC phosphorylation; cited from earlier work"}, "dCK": {"biological_target": "dCK (Homo sapiens, UniProt P27707)", "sequence (P27707 whole entry)": "as the sequence (P27707 whole entry A100V/R104M/D133A) above, with V100A, M104R, A133D counted along it", "conditions": "versus cladribine; cited from earlier work"}, "HL60 cell line": {"tested_on": "HL60 cell line", "assay": "Annexin V and propidium iodide (PI) staining of apoptotic cells, HL60", "assay_type": "cell-based", "conditions": "after 96 hours; AraC at 1 μM", "experimental": "(§1) The HuM195 antibody will only bind and internalize to cells expressing CD33. Thus, the HL60 cell line (derived from AML cells) and the NB4 cell line, which are CD33 positive, were used to test the activity of the HuM195-dCK system in live cells. The cells were treated with AraC, the HuM195-dCK conjugate, or the combination of HuM195-dCK and the AraC. Annexin V and propidium iodide (PI) staining was used to identify apoptotic cells."}, "NB4 cells": {"tested_on": "NB4 cells", "assay": "Apoptosis assay, NB4", "assay_type": "cell-based", "conditions": "after 96 hours; AraC 250 nM", "experimental": "as §1\nThe NB4 cells were also treated with AraC, the HuM195-dCK conjugate, or the combination of HuM195-dCK and the AraC, and an apoptosis assay was performed as above. The AraC dose used, however, was decreased from 1000 nM to 250 nM. The results were similar to those observed in the HL60 cells (FIG. 8). The conjugate with AraC (right bars) achieve ˜65% cell killing after 96 hours, whereas AraC alone was below 40%."}},
  "data": [
    {"compound": "Cc1cn([C@H]2C[C@H](O)[C@@H](CO)O2)c(=O)[nH]c1=O", "note": "[thymidine]", "values": [
      {"measurement": "phosphorylation of thymidine by the dCK mutant", "setting": "A100V/R104M/D133A-dCK; Arg104 to methionine, Asp133 to alanine", "result": "gained the ability to phosphorylate thymidine"}
    ]},
    {"compound": "Nc1ccn([C@@H]2O[C@H](CO)[C@@H](O)C2(F)F)c(=O)n1", "note": "[gemcitabine, 2′,2′-difurodeoxycytidine]", "values": [
      {"measurement": "increase of efficiency of the triple mutant over wild type", "setting": "A100V/R104M/D133A-dCK; triple mutant versus wild type dCK", "result": "~4", "unit": "fold"},
      {"measurement": "change in KM compared to dC", "setting": "Wild Type dCK", "result": "slight increase"},
      {"measurement": "higher enzymatic efficiency for dCK compared to dC", "setting": "Wild Type dCK", "result": "~4", "unit": "fold"},
      {"measurement": "increase in the kcat compared to dC", "setting": "Wild Type dCK", "result": 10, "unit": "fold"}
    ]},
    {"compound": "Nc1ccn([C@H]2C[C@H](O)[C@@H](CO)O2)c(=O)n1", "note": "[dC, deoxycytidine]", "values": [
      {"measurement": "kcat", "setting": "dNK", "result": 16.5, "unit": "s⁻¹"}
    ]},
    {"compound": "Nc1nc(Cl)nc2c1ncn2[C@@H]1O[C@H](CO)[C@@H](O)[C@@H]1F", "note": "[clofarabine, 2-chloro-2′-arabino-fluoro-2′-deoxyadenosine]", "values": [
      {"measurement": "more efficient substrate for dCK than cladribine", "setting": "dCK", "result": "~3", "unit": "fold"}
    ]},
    {"compound": "Nc1ccn([C@@H]2O[C@H](CO)[C@@H](O)[C@@H]2O)c(=O)n1", "note": "[ara-C, 1-β-D-arabinofuranosylcytosine]", "values": [
      {"measurement": "cell death", "setting": "HL60 cell line", "result": 50, "unit": "%"},
      {"measurement": "cell killing", "setting": "NB4 cells", "result": "below 40%"}
    ]}
  ]
}
